Results on 93 compounds are retold here after ChEMBL document CHEMBL3507680, “University of Dundee, Gates Library screen for HepG2 cell viability”.

Molecules are shown by their SMILES.

A short description of the series: Human HepG2 cell viability assay in 384 well format. To be noted: HepG2 cells, read-out: Inhibition. Also noted: dose 125 nL, time 70.5 hour; cytotoxicity at 70.5 h: concentration not given beside the values. The class given is toxicity, cell-based.
`COc1ccc2cnn(CC(=O)NC3CCCCC3)c(=O)c2c1OC`: the cytotoxicity at 70.5 h is 1.17%. With `Cc1occc(=O)c1OCC(=O)N1CCN(c2ccccc2)CC1` the figure was -0.838%; with `O=C(Cc1csc(-c2ccccc2Cl)n1)NCc1cccc(C(=O)O)c1`, -18.1%; with `COc1ccc(NC(=O)Cn2c(=O)nc(N)c3cc(C)sc32)cc1`, -13.1%. For the compound `O=C1CC(c2ccccc2)c2c(c(C(=O)O)cn2-c2ccccc2)N1` (stereo not drawn), the cytotoxicity at 70.5 h is -10.7%. For `Cc1n[nH]c2nc(-c3cc(Br)ccc3O)cc(C(=O)O)c12`, the cytotoxicity at 70.5 h is 8.54%. Take `CN1CCN(C(=O)c2cc3sccc3n2Cc2ccccc2)CC1`: the cytotoxicity at 70.5 h is -6.85%. For `COC(=O)c1ccc(C2CC(=O)Nc3c2cnn3C)cc1` (stereo not drawn), the cytotoxicity at 70.5 h was determined as 3.26%. In the case of `Cc1c(OCC(=O)NCc2ccccc2)c(=O)ccn1C`, the cytotoxicity at 70.5 h is -17.6%.

`NC(=O)c1c(SCCN2CCCCC2)sc2c(O)cc(=O)[nH]c12`: the cytotoxicity at 70.5 h was -7.79%. With `Cc1c(C2SCC(=O)Nc3c2cnn3C(C)(C)C)cnn1C` (stereo not drawn) the figure was -10.1%. Under `COc1ccccc1N1CCN(C(=O)COc2c(C)occc2=O)CC1` stands 6.76%; under `Cn1ncc2c1NC(=O)CSC2c1ccc2c(c1)OCO2` (stereo not drawn), 10.3%. With `Cc1ccc(CN2CC[C@H]3C(=O)N(c4cccnc4)CCO[C@H]3C2)o1` the figure was -5.97%; with `CN1Cc2c(C(=O)N3CCOCC3)ncn2-c2ccccc2S1(=O)=O`, -1.47%; with `CN1CCN(C(=O)c2ncn3c2CNS(=O)(=O)c2ccccc2-3)CC1`, 1.85%.

In the case of `Cc1nc(-c2cc(C(=O)NCC(C)(C)CO)c3ccccn23)cs1`, the cytotoxicity at 70.5 h is 5.35%. Take `O=C(c1ccc[nH]1)N1CCC2(CC1)COCCN(c1nccs1)C2`: the cytotoxicity at 70.5 h is -1.47%. As to `CN1CC[C@]2(CN(C(=O)[C@H]3CCCO3)C[C@H]2c2ccccc2)C1=O`, the cytotoxicity at 70.5 h is -2.45%. Turning to `O=S(=O)(C1CC1)N1CCn2c(Cn3cccn3)cnc2C1`, the cytotoxicity at 70.5 h is -1.3%. On to `Cc1csc(CN2CC[C@H]3C(=O)N(c4cccnc4)CCO[C@H]3C2)n1`, for which the cytotoxicity at 70.5 h worked out at 11%.

Regarding `N#Cc1cccc(N2CCCC3(CN(C(=O)NC4CC4)CCO3)C2)c1` (stereo not drawn), the cytotoxicity at 70.5 h is -1.09%. With `CCS(=O)(=O)N1Cc2c(Cn3cccc3)nn(C(C)C)c2C1` the figure was -2.77%; with `Cc1ccc(N2CC3(CCN(S(=O)(=O)C4CC4)C3)C2)nn1`, -5.86%; with `CCS(=O)(=O)N1CCC2(CC1)CC[C@@]1(C(=O)N(C)C)CN(C(C)=O)C[C@@H]21`, 13.5%. On to `COCCN1C(=O)C2(CCC(C(=O)Nc3ccc(C)cc3)CC2)N=C1C` (stereo not drawn), for which the cytotoxicity at 70.5 h came to 10.5%.

In the case of `O=C(NCC1CC[C@@]2(CNCCOC2)O1)c1cnccn1` (stereo partly drawn), the cytotoxicity at 70.5 h worked out at 27.6%. In the case of `CNC(=O)[C@H]1C[C@@H]2CN(c3cc(OC)ncn3)C[C@@H]2N1C(C)C`, the cytotoxicity at 70.5 h was determined as 15.2%.

As for `COCC(=O)N1CC[C@H]2[C@H]1CCN2CC(C)C`, the cytotoxicity at 70.5 h is -12.6%. With `CNC(=O)[C@@H]1COC[C@H]2CN(C(=O)c3ccc(C)c(C)c3)C[C@H]21`, the cytotoxicity at 70.5 h is -7.79%.

As for `Cc1cc(C)cc(CN2C[C@@H]3OCCN(S(=O)(=O)N(C)C)[C@@H]3C2)c1`, the cytotoxicity at 70.5 h was -5.73%. Regarding `CCc1ccc(C(=O)N2C[C@@H]3COC[C@@H](C(=O)NC)[C@@H]3C2)cc1`, the cytotoxicity at 70.5 h is -0.591%. On to `CCOCc1cncc2c1CCN(C(=O)c1cccc(C#N)c1)C2`, for which the cytotoxicity at 70.5 h is -1.85%.

With `COc1cccc(CN2C[C@H]3CCNCC[C@H]3S2(=O)=O)c1`, the cytotoxicity at 70.5 h worked out at 18.8%. Regarding `CC(C)NC(=O)N1CCN(C(=O)C2CCOCC2)CC2(CNC(=O)C2)C1` (stereo not drawn), the cytotoxicity at 70.5 h is -16%. As for `c1ccc(CO[C@H]2CO[C@@]3(CCCN(Cc4ccncc4)C3)C2)nc1`, the cytotoxicity at 70.5 h was -16.2%. With `O=c1cc(Cn2ccnc2)nc2n1CCCN(Cc1cccs1)C2` the figure was -16.6%; with `O=C(c1ccc[nH]1)N1CCOCC2(CCN(C3CCOCC3)C2)C1` (stereo not drawn), -19%. As for `N#Cc1cccc(N2CCCC3(C2)CN(c2nncs2)CCO3)c1` (stereo not drawn), the cytotoxicity at 70.5 h is 14%. As to `CS(=O)(=O)NC[C@]12COC[C@H]1CN(C(=O)c1ncccn1)C2`, the cytotoxicity at 70.5 h was found to be 17.4%. For the compound `Cc1ccc(S(=O)(=O)N2Cc3c(CN(C)C)nn(C)c3C2)cc1`, the cytotoxicity at 70.5 h came to 3.97%. With `CN(C)Cc1nn(C)c2c1CN(S(=O)(=O)c1ccccc1F)C2`, the cytotoxicity at 70.5 h was -0.163%.

Take `O=C1CCCN1CC1CN(C(=O)C2CCOCC2)Cc2nccn2C1` (stereo not drawn): the cytotoxicity at 70.5 h was -1.66%. With `Cn1cc(C[C@H]2[C@H](O)CCN2C(=O)C2CCCC2)cn1`, the cytotoxicity at 70.5 h is -2.64%. Consider `CN(Cc1cn2c(n1)CN(C(=O)C1CCOCC1)CC2)Cc1ccco1`, for which the cytotoxicity at 70.5 h is -1.65%. In the case of `CS(=O)(=O)N1Cc2nccn2CC(CN2CCCC2=O)C1` (stereo not drawn), the cytotoxicity at 70.5 h was determined as 1.5%.

As for `Cc1ccoc1C(=O)N1CC(C(=O)NCC2CC2)C2(CCOCC2)C1` (stereo not drawn), the cytotoxicity at 70.5 h is 1.52%.

In the case of `Cc1cccc(S(=O)(=O)N2Cc3c(CN(C)C)nn(C)c3C2)c1`, the cytotoxicity at 70.5 h was determined as 2.96%.

Take `Cc1ccsc1C(=O)N1CCn2cnc(COCC3CC3)c2C1`: the cytotoxicity at 70.5 h was -4.7%. For the compound `Cc1ncsc1CN1CC[C@H]2OCC[C@@]2(C(=O)N(C)C)C1`, the cytotoxicity at 70.5 h is -3.45%.

In the case of `Cn1cc(C[C@H]2[C@H](O)CCN2C(=O)C2CCOCC2)cn1`, the cytotoxicity at 70.5 h was -7.24%.

As to `O=C(NCC1CCC2(CCNCC2)CO1)c1cnccn1` (stereo not drawn), the cytotoxicity at 70.5 h came out at 9.23%.

As for `CCn1ncc2c1CN(C(=O)c1cc(C)oc1C)CC2COC` (stereo not drawn), the cytotoxicity at 70.5 h was -0.428%.

Take `CCc1ccc(NC(=O)N2Cc3c(CN(C)C)nn(C)c3C2)cc1`: the cytotoxicity at 70.5 h is -2.56%. In the case of `Cc1ccc(N2CCC3(CC2)CCN(C2CCOCC2)CC3)nn1`, the cytotoxicity at 70.5 h was -2.19%. For `O=C1CC2(CCCCN2CC2CC2)CN1c1ccccc1` (stereo not drawn), the cytotoxicity at 70.5 h was -3.65%. Under `O=C(NC1CC1)[C@@H]1CN(Cc2ccc3c(c2)OCO3)C[C@H]2OCC[C@H]21` stands -1.06%. Consider `Cc1cccc(CN2CCc3c(CNC(=O)CC#N)nn(C)c3C2)n1`, for which the cytotoxicity at 70.5 h is -0.367%. As for `N#Cc1ccccc1N1CC2(CCCCN2CC2CC2)CC1=O` (stereo not drawn), the cytotoxicity at 70.5 h turned out to be 7.89%.

Regarding `NC(=O)c1nc2c(s1)CCN(Cc1ccccc1)CC2`, the cytotoxicity at 70.5 h was -2.47%. As to `CCN(CC)C(=O)c1nc2c(s1)CCN(Cc1cccc(OC)c1)CC2`, the cytotoxicity at 70.5 h is -11.2%. `COCC(=O)N1CCc2ccc(=O)n(Cc3csc(C)n3)c2CC1`: the cytotoxicity at 70.5 h was -6.47%. In the case of `CCCN1CCCn2c(nc(CNC(=O)c3nccn3C)cc2=O)C1`, the cytotoxicity at 70.5 h was -9.48%. Under `Cn1ccnc1C(=O)N1CCC2(CCCN2CC2CC2)CC1` stands -7.19%. Under `CCCN1CCCn2c(nc(CNC(=O)N3CCCC3)cc2=O)C1` stands -9.21%; under `COc1cccc(CN2CCc3nc(C(=O)NCC(C)C)sc3CC2)c1`, 10.6%; under `CS(=O)(=O)N1C[C@H]2CCCN(Cc3nccs3)[C@H]2C1`, 14.5%. As for `CNC(=O)CC1CC2(CCN(c3ncccn3)CC2)c2ccccc21` (stereo not drawn), the cytotoxicity at 70.5 h is -6.77%.

As to `Cn1cc(CN2CCC3(CC2)C(=O)Nc2ccccc23)cn1`, the cytotoxicity at 70.5 h was -6.51%. For the compound `COc1ccc(CN2C[C@H](N3CCCC3=O)[C@@H]3OCCC[C@@H]32)cc1`, the cytotoxicity at 70.5 h is -7%. Consider `Cn1cc(CN2C[C@@H]3CCCO[C@@H]3[C@H](N3CCCC3=O)C2)cn1`, for which the cytotoxicity at 70.5 h was -4.04%. Take `Cc1cccc(CN2C[C@@H]3OCCN(S(=O)(=O)N(C)C)[C@@H]3C2)c1`: the cytotoxicity at 70.5 h is -2.05%. Regarding `CC(C)N1CCc2c(c(COc3cncnc3)nn2CC2CC2)C1`, the cytotoxicity at 70.5 h is -3.91%. As for `CNC(=O)CN1CCOCC2(C1)CN(C(=O)C(C)C)CCO2` (stereo not drawn), the cytotoxicity at 70.5 h is -9.58%. In the case of `O=C([C@@H]1CCO[C@@H]2CCN(Cc3cccs3)C[C@H]21)N1CCCCO1`, the cytotoxicity at 70.5 h is -18.4%.

Regarding `COCCN1CC[C@H]2OCC[C@@H](C(=O)N3CCCO3)[C@H]2C1`, the cytotoxicity at 70.5 h turned out to be 47%.

Turning to `COc1ccccc1CN1CC[C@H]2C[C@H](C(=O)N3CCCC3)O[C@H]2C1`, the cytotoxicity at 70.5 h is 15.4%. With `Cc1cccc(C(=O)N2CC(C(=O)NCC3CC3)C3(CCOCC3)C2)n1` (stereo not drawn), the cytotoxicity at 70.5 h was -2.96%.

In the case of `COCCNC(=O)[C@@]12CCO[C@@H]1CCN(Cc1scnc1C)C2`, the cytotoxicity at 70.5 h was -2.1%.

In the case of `CCn1ncc2c1C(COCC1CC1)N(Cc1ccccn1)CC2` (stereo not drawn), the cytotoxicity at 70.5 h is -1.07%.

Regarding `c1ccc(OCc2n[nH]c3c2CN(CC2CC2)C3)nc1`, the cytotoxicity at 70.5 h was -2.5%. Regarding `c1ccc(OCc2n[nH]c3c2CN(Cc2cccs2)C3)nc1`, the cytotoxicity at 70.5 h is -0.121%. With `c1cc2c(cc1CN1C[C@@H]3COC[C@@H](N4CCCC4)[C@@H]3C1)OCO2`, the cytotoxicity at 70.5 h is -6.89%.

As to `CN(C)C(=O)CN1CCOCC2(CCN(CC3CCOC3)CC2)C1` (stereo not drawn), the cytotoxicity at 70.5 h stood at 15.1%. Regarding `Cn1nc(Cn2ccnc2)c2c1CN(c1nccs1)C2`, the cytotoxicity at 70.5 h was -5.95%.

As for `Cn1cc(CN2C[C@H](N3CCOCC3)[C@@H]3OCCC[C@@H]32)cn1`, the cytotoxicity at 70.5 h was -4.71%.

As to `Cc1ccc(CN2CC[C@]3(C[C@H](OCc4ccccn4)CO3)C2)o1`, the cytotoxicity at 70.5 h is -18.4%. For the compound `CCS(=O)(=O)NC[C@]12COC[C@H]1CN(Cc1cccnc1OC)C2`, the cytotoxicity at 70.5 h is -19.9%. With `Cc1ccc2c(n1)N(CCN(C)C)CCN(Cc1c(C)noc1C)C2` the figure was -2.08%; with `CN(C)CCN1CCCC12CCCN(Cc1ccoc1)C2` (stereo not drawn), 13.7%; with `CC(C)N1CCc2c(c(COc3cccnc3)nn2CC2CC2)C1`, -2.06%. Regarding `Cc1nc(CN2CC[C@H]3[C@H]2CCN3c2ncccn2)cs1`, the cytotoxicity at 70.5 h is -5.71%. For the compound `c1ccc(CN2CC[C@H]3[C@H]2CCN3c2ncccn2)nc1`, the cytotoxicity at 70.5 h was -5.09%.
